The text below walks through data of patent publication US7931909B2, “Ocular therapy using alpha-2 adrenergic receptor compounds having enhanced anterior clearance rates” (Allergan, Inc., priority 2005, dated 2011).

Where two headings read alike, the source gives them in different places. Marks after values point to notes of the source that are not given here.

Series [1] deals with organic cation transporter present in the conjunctiva. The settings on record: cited from earlier work.
In series [2] the target is alpha 2 adrenergic receptor. To be noted: read-out: EC50 to activate the alpha 2 adrenergic receptor; isolated assay systems; cited from earlier work.
The nature of series [3]: in vivo. To be noted: albino, rabbit, vitreous humor, 928 ng.
Series [4] in a line: Pharmacokinetics of brimonidine drug delivery systems administered subconjunctivally. The format is in vivo, New Zealand White rabbits. The settings on record: all samples, subconjunctival drug delivery systems, rabbit. An excerpt:
Thirty groups of rabbits (2 rabbits per group) were used. The groups were divided into 6 sections of 5 groups. […] In each section, one group underwent ophthalmic observation at 5 days after dosing (DAD) and were euthanized at 8 DAD, one group underwent ophthalmic observation at 5 and 29 DAD and were euthanized at 31 DAD, one group underwent ophthalmic observation at 5, 29, and 54 DAD and were euthanized at 60 DAD, and two groups underwent ophthalmic observation at 5, 29, 54, and 86 DAD and were euthanized at 93 DAD.
Eyes were prepared for surgery by topical application of two drops of 1% tropicamide and two drops of phenylephrine hydrochloride 2.5%. Betadine was applied and washed from the eyes, and 1-2 drops of 0.5% proparacaine hydrochloride were delivered to each eye. […] Rods and wafers were administered using forceps. Conjunctivae were sutured closed and received a ocular lubricant. Subconjunctival injections were performed by elevating the bulbar conjunctiva in the dorsotemporal quadrant using forceps. An injection was made into the subconjunctival space.
In the above, the samples were quantified using LC-MS/MS methods with quantitation limits of 10 ng/mL for aqueous and vitreous humor samples, 0.05 ng/mL for plasma samples, 0.5 ng for iris-ciliary body samples, lens samples, and retina samples.

The nature of series [5]: in vivo. The settings on record: rabbit, other: intravitreal implant, 200 micrograms.
For series [6] the following is noted: intravitreal PLA implant, 200 micrograms brimonidine, rabbit eyes.
For series [7] the following is noted: cited from earlier work.

Consider `Brc1c(NC2=NCCN2)ccc2nccnc12` [brimonidine, 5-bromo-6-(2-imidazolidinylideneamino)quinoxaline], for which the “substrate for the organic cation transporter” value in series [1] is reported as “substrate”. Moreover, in series [2], the EC50 was around 2 nM. The compound also registered a vitreal clearance rate (as restated in Example 3) of 0.487 mL/day. In addition, the “route of elimination from the vitreous” value (conclusion from intravitreal clearance, rabbit) is “trans-retinal route”. In the series “in vivo [3]”, this compound had a clearance of 0.00812 mL/min and a half-life of 87 min. Also, in “in vivo [3]” (other: intravitreal injection), the concentration at 0.5 h stood at 608 ± 116 ng/mL and the concentration at 10 h is 9.68 ± 6.48 ng/mL. Also, the Plasma brimonidine concentrations result in series [4] was “below the lower limit of quantitation”. In “in vivo [5]” (iris-ciliary body), this compound returned a concentration at 31 day of 25.9 ± 9.11 ng/g, a concentration at 58 day of 69.4 ± 55.3 ng/g and a concentration at 136 day of 107 ± 41.5 ng/g. Also, in “in vivo [5]” (lens), the concentration at 8 day was found to be 45.1 ± 13.4 ng/g, the concentration at 31 day was 17 ± 3.92 ng/g and the concentration at 91 day stood at 50.1 ± 14.8 ng/g. In the series “in vivo [5]” (retina), this compound registered a concentration at 8 day of 3630 ± 2110 ng/g, a concentration at 31 day of 35.3 ± 15.5 ng/g and a concentration at 136 day of 22.6 ± 5.9 ng/g. In the series “in vivo [5]” (vitreous humor), this compound yielded a concentration at 8 day of 47.2 ± 13.1 ng/mL and a concentration at 91 day of 59.3 ± 43.2 ng/mL. The “Brimonidine Concentration Iris-ciliary body” value in series [6] (Day 8, mean (N = 2)) came to 942 ng/g. For the same compound, in series [6] (Day 8, two samples above the limit of quantitation), the “Brimonidine Concentration Iris-ciliary body, estimated mean value in parentheses” value is 3010 ng/g. The “Brimonidine Concentration Vitreous humor” value in series [6] (Day 31, mean ± SEM) is given as 9.35 ± 6.25^b ng/mL. Also, in series [6] (Day 58, mean ± SEM), the “Brimonidine Concentration Lens” value was 17.9 ± 12.5^b ng/g, the “Brimonidine Concentration Retina” value is 122 ± 57.3^a ng/g and the “Brimonidine Concentration Vitreous humor” value is listed as 5.6 ± 3.24^b ng/mL. Besides, in series [6] (Day 91, mean ± SEM), the “Brimonidine Concentration Iris-ciliary body” value is given as 42.9 ± 18.7^c ng/g and the “Brimonidine Concentration Retina” value is listed as 488 ± 471^b ng/g. Besides, the “Brimonidine Concentration Lens” value in series [6] (Day 136, mean ± SEM) is given as 16.2 ± 12.3^a ng/g. In addition, in series [6] (Day 184, mean ± SEM), the “Brimonidine Concentration Lens” value is given as 1.18 ± 0.71^b ng/g and the “Brimonidine Concentration Retina” value is on record as 59.8 ± 35.0^b ng/g.

Regarding brimonidine tartrate, the solubility in water in series [7] (in water) was 34 mg/mL. Further, in series [7] (pH 7.0 phosphate buffer), the “solubility in a pH 7.0 phosphate buffer” value was 2.4 mg/mL.

As a reminder, the EC50 is the concentration giving half of the maximal effect. As a reminder, the clearance is the volume of plasma or blood freed of the substance per unit of time. Higher therefore signals a high capacity for elimination. Usually half-life stands for the time needed for the level to fall by half in the phase considered. Lower therefore signals fast loss.
